In US10201531B2, “Indazolyl-oxo-isothiazole compounds” (MOCHIDA PHARMACEUTICAL CO., LTD., priority 2015, dated 2019) one finds EC50 data, which are given here for 57 compounds.

SMILES strings stand for the structures. A value given as a limit tells only on which side of the number the result lay.

The assay deals with Nrf2. Put plainly: Evaluation of Nrf2 activation ability (Nrf2d-LacZ / Keap1 HEK293 reporter, Beta-Glo luminescence). It counts as cell-based, human. On the procedure: HEK293 cells constantly expressing Nrf2d-LacZ (human Nrf2 degron region fused to LacZ; Hirotsu et al, Genes to Cell, Vol. 16, pp. 406-415 (2011)) and human Keap1 were seeded 7,000 cells/27 μl/well on 384-well plates (Corning 384 Well Flat Clear Bottom White Polystyrene TC-Treated Microplates, Cat. #3707), and cultured overnight at 5% CO2, 37° C. in DMEM medium containing 10% FBS, 100 U/mL penicillin and 100 μg/mL streptomycin. 3 μL/well of a 0.1% DMSO solution of the compound of the invention was added to the cells, which were then cultured for 3 hours at 5% CO2, 37° C. Beta-Glo® reagent (Promega, Beta-Glo Assay System, Cat. #E4740) was added 15 μL/well and incubated for 1 hour at room temperature, and luminescence intensity was measured with a luminometer. Using CDDO-Im as a standard, Nrf2 activation ability was calculated given 100% as the luminescence under stimulus with 100 nM CDDO-Im.

The mark [1] stands for this setting: rated A/B/C, Pharmacological Test Example 1.
Setting [2] is: Pharmacological Test Example 1, rated A/B/C.

In turn, `[O-][s+]1nc(O)cc1-n1cc2c(n1)CN(CC1CCCCC1)C2` (single isomer, unassigned) [Example 275] yielded an EC50 under setting [1] of 1000 to 5000 nM.

The compound `O=S(=O)(c1cccc(COc2ccc(-c3cnn(-c4cc(O)n[s+]4[O-])c3)cc2)c1)N1CCCCC1` (stereo not drawn) [Example 366] showed an EC50 under setting [2] of 1000 to 5000 nM.

`Cn1cc(-c2ccc3c(cnn3-c3cc(O)n[s+]3[O-])c2)cn1` (stereo not drawn) [Example 50] displayed an EC50 under setting [1] of less than 1000 nM.

`COc1cc(-c2cccc3c2cnn3-c2cc(O)n[s+]2[O-])ccn1` (stereo not drawn) [Example 97] registered an EC50 under setting [1] of 1000 to 5000 nM.

Turning to `O=C(c1c(Cl)cccc1Cl)c1nn(-c2cc(O)n[s+]2[O-])c2ccccc12` (stereo not drawn) [Example 22], under setting [1], the EC50 is 1000 to 5000 nM.

Compound `COC(=O)c1ccccc1-c1cnn(-c2cc(O)n[s+]2[O-])c1` (stereo not drawn) [Example 330] had an EC50 under setting [2] of 1000 to 5000 nM.

Compound `[O-][s+]1nc(O)cc1-n1ncc2c(OCc3ccccc3)cccc21` (stereo not drawn) [Example 30] had an EC50 under setting [1] of 5000 to 10000 nM.

`CN(C(=O)N1CCC(c2ccc3c(cnn3-c3cc(O)n[s+]3[O-])c2)CC1)c1ccccc1` (stereo not drawn) [Example 170] displayed an EC50 under setting [1] of 1000 to 5000 nM.

As for `Cc1nn(-c2cc(O)n[s+]2[O-])c(C)c1I` (stereo not drawn) [Example 305], the EC50 under setting [1] is 1000 to 5000 nM.

`Cc1nn(-c2cc(O)n[s+]2[O-])c(C)c1C1=CCN(C(=O)OC(C)(C)C)CC1` (stereo not drawn) [Example 313] showed an EC50 under setting [1] of 5000 to 10000 nM.

`CN1CCOc2cc(-c3ccc4c(cnn4-c4cc(O)n[s+]4[O-])c3)c(C(F)F)nc21` (stereo not drawn) [Example 204] returned an EC50 under setting [1] of less than 1000 nM.

Under setting [1], `[O-][s+]1nc(O)cc1-n1cc(-c2cccc(Br)c2)cn1` (stereo not drawn) [Example 290] showed an EC50 of less than 1000 nM.

Compound `[O-][s+]1nc(O)cc1-n1cc(-c2ccc(C3CC3)nc2)cn1` (stereo not drawn) [Example 323] displayed an EC50 under setting [2] of less than 1000 nM.

The compound `[O-][s+]1nc(O)cc1-n1ncc2cc(Cl)ccc21` (stereo not drawn) [Example 12] returned an EC50 under setting [1] of less than 1000 nM.

As for `[O-][s+]1nc(O)cc1-n1ncc2cc(-c3ccc(C4CC4)nc3)ccc21` (stereo not drawn) [Example 46], the EC50 under setting [1] was less than 1000 nM.

`CC(C)(C)OC(=O)N1CCCc2nn(-c3cc(O)n[s+]3[O-])cc2C1` (stereo not drawn) [Example 250] came in with an EC50 under setting [1] of 1000 to 5000 nM.

On to `[O-][s+]1nc(O)cc1-n1cc(-c2cnccn2)cn1` (stereo not drawn) [Example 428], for which, under setting [2], the EC50 fell in the range of 5000 to 10000 nM.

`[O-][s+]1nc(O)cc1-n1ncc2cc(-c3cccnc3)ncc21` (stereo not drawn) [Example 235] showed an EC50 under setting [1] of 1000 to 5000 nM.

For `Cc1nc2c(cc1-c1ccc3c(cnn3-c3cc(O)n[s+]3[O-])c1)OCCN2C` (stereo not drawn) [Example 185], the EC50 under setting [1] is less than 1000 nM.

Turning to `[O-][s+]1nc(O)cc1-n1ncc2ccc(C(F)(F)F)cc21` (stereo not drawn) [Example 33], under setting [1], the concentration giving a half-maximal response (EC50) was in the range of 1000 to 5000 nM.

As for `CC(C)(C)OC(=O)N1CC=C(c2ccc3cnn(-c4cc(O)n[s+]4[O-])c3c2)CC1` (stereo not drawn) [Example 104], the EC50 under setting [1] was in the range of 1000 to 5000 nM.

Under setting [2], `Cc1cncc(-c2cnn(-c3cc(O)n[s+]3[O-])c2)c1` (stereo not drawn) [Example 401] returned a concentration for a half-maximal effect (EC50) of 5000 to 10000 nM.

For `Cn1cc(-c2cccc3c2cnn3-c2cc(O)n[s+]2[O-])cn1` (stereo not drawn) [Example 101], the EC50 under setting [1] lay within 1000 to 5000 nM.

As to `N#Cc1ccc(-c2ccc3c(cnn3-c3cc(O)n[s+]3[O-])c2)nc1` (stereo not drawn) [Example 108], under setting [1], the EC50 lay in the range of 1000 to 5000 nM.

Turning to `Cc1cccc(C)c1COc1ccc(-c2cnn(-c3cc(O)n[s+]3[O-])c2)cc1` (stereo not drawn) [Example 376], the EC50 under setting [2] was 1000 to 5000 nM.

As for `COc1c(-c2cnc3c(c2)OCCN3C)ccc2c1cnn2-c1cc(O)n[s+]1[O-]` (stereo not drawn) [Example 211], the EC50 under setting [1] is less than 1000 nM.

With `O=C(c1ccc(-c2ccc3c(cnn3-c3cc(O)n[s+]3[O-])c2)cc1)N1CCCC1` (stereo not drawn) [Example 75], under setting [1], the EC50 is 1000 to 5000 nM.

`[O-][s+]1nc(O)cc1-n1cc(-c2ccc(N3CCCCC3)nc2)cn1` (stereo not drawn) [Example 321] returned an EC50 under setting [2] of 1000 to 5000 nM.

As to `[O-][s+]1nc(O)cc1-n1ncc2cc(-c3ccc(C4CC4)nc3)ncc21` (stereo not drawn) [Example 237], the EC50 under setting [1] is less than 1000 nM.

`[O-][s+]1nc(O)cc1-n1ncc2cc(-c3ccnc(N4CCOCC4)c3)ccc21` (stereo not drawn) [Example 59]: the EC50 under setting [1] was less than 1000 nM.

On to `[O-][s+]1nc(O)cc1-n1ncc2cc(-c3cnc4c(c3)OCCO4)ccc21` (stereo not drawn) [Example 220], for which the EC50 under setting [1] is less than 1000 nM.

Under setting [1], `[O-][s+]1nc(O)cc1-n1ncc2cc(C3=CCOCC3)ncc21` (stereo not drawn) [Example 236] came in with an EC50 of 1000 to 5000 nM.

The compound `[O-][s+]1nc(O)cc1-n1cccn1` (stereo not drawn) [Example 284] had an EC50 under setting [1] of 1000 to 5000 nM.

In turn, `CN1CCOc2nc(-c3ccc4c(cnn4-c4cc(O)n[s+]4[O-])c3)cnc21` (stereo not drawn) [Example 210] came in with an EC50 under setting [1] of less than 1000 nM.

Take `Cc1ccnc(-c2cnn(-c3cc(O)n[s+]3[O-])c2)n1` (stereo not drawn) [Example 433]: the EC50 under setting [2] lay within 1000 to 5000 nM.

As for `[O-][s+]1nc(O)cc1-n1ncc2cc(-c3ccc(N4CCOCC4)nc3)ccc21` (stereo not drawn) [Example 126], the EC50 under setting [1] was in the range of 1000 to 5000 nM.

Take `[O-][s+]1nc(O)cc1-n1cc(-c2ccc3cnccc3c2)cn1` (stereo not drawn) [Example 356]: the EC50 under setting [2] lay in the range of 1000 to 5000 nM.

`[O-][s+]1nc(O)cc1-n1ncc2cc(OCc3ccccc3)ccc21` (stereo not drawn) [Example 26]: the EC50 under setting [1] was in the range of 1000 to 5000 nM.

Regarding `COc1ccc(-c2cnn(-c3cc(O)n[s+]3[O-])c2)cn1` (stereo not drawn) [Example 392], the EC50 under setting [2] was less than 1000 nM.

Under setting [1], `[O-][s+]1nc(O)cc1-n1ncc2cc(-c3ccc(N4CCCC4)cn3)ccc21` (stereo not drawn) [Example 139] yielded an EC50 of less than 1000 nM.

The compound `COc1cc(-c2ccnc(N3CCCC3)c2)cc2c1cnn2-c1cc(O)n[s+]1[O-]` (stereo not drawn) [Example 194] displayed an EC50 under setting [1] of less than 1000 nM.

Take `[O-][s+]1nc(O)cc1-n1cc(-c2ccccc2)cn1` (stereo not drawn) [Example 363]: under setting [2], the EC50 is less than 1000 nM.

In turn, `COc1cc(-c2ccc3c(cnn3-c3cc(O)n[s+]3[O-])c2)ccn1` (stereo not drawn) [Example 3, 5-[5-(2-methoxypyridin-4-yl)indazol-1-yl]-1-oxo-1,2-thiazol-3-ol] showed an EC50 under setting [1] of less than 1000 nM.

The compound `[O-][s+]1nc(O)cc1-n1ncc2cc(-c3ccccc3F)ccc21` (stereo not drawn) [Example 83] displayed an EC50 under setting [1] of less than 1000 nM.

With `[O-][s+]1nc(O)cc1-n1ncc2cc(C3=CCOCC3)ccc21` (stereo not drawn) [Example 42], the EC50 under setting [1] was less than 1000 nM.

Regarding `[O-][s+]1nc(O)cc1-n1ncc2cc(-c3ccccn3)ccc21` (stereo not drawn) [Example 43], the EC50 under setting [1] was less than 1000 nM.

In the case of `[2H]c1cccc(-c2ccc3c(cnn3-c3cc(O)n[s+]3[O-])c2)n1` (stereo not drawn) [Example 89], the EC50 under setting [1] is less than 1000 nM.

For the compound `[O-][s+]1nc(O)cc1-n1ncc2cc(-c3cccc(C(F)(F)F)n3)ccc21` (stereo not drawn) [Example 130], the EC50 under setting [1] was less than 1000 nM.

For the compound `[O-][s+]1nc(O)cc1-n1ncc2cc(-c3cccnc3)ccc21` (stereo not drawn) [Example 38], the EC50 under setting [1] was less than 1000 nM.

In turn, `CC(C)(C)OC(=O)N1CC=C(c2ccc3c(cnn3-c3cc(O)n[s+]3[O-])c2)CC1` (stereo not drawn) [Example 44] came in with an EC50 under setting [1] of less than 1000 nM.

For the compound `[O-][s+]1nc(O)cc1-n1cc(C2CCCCC2)cn1` (stereo not drawn) [Example 306], under setting [1], the EC50 was 1000 to 5000 nM.

As for `[O-][s+]1nc(O)cc1-n1ncc2cc(-c3cnc4ccoc4c3)ccc21` (stereo not drawn) [Example 61], the EC50 under setting [1] was less than 1000 nM.

On to `COc1cc(-c2cnn(-c3cc(O)n[s+]3[O-])c2)ccn1` (stereo not drawn) [Example 404], for which the EC50 under setting [2] is less than 1000 nM.

Under setting [1], `Cc1nn(-c2cc(O)n[s+]2[O-])c2ccc(Cl)cc12` (stereo not drawn) [Example 15] gave an EC50 of 1000 to 5000 nM.

Under setting [1], `Cc1nn(-c2cc(O)n[s+]2[O-])c(C)c1-c1ccccc1` (stereo not drawn) [Example 311] gave an EC50 of 5000 to 10000 nM.

Under setting [1], `O=C(c1ccc(-c2ccc3c(cnn3-c3cc(O)n[s+]3[O-])c2)cn1)N1CCCC1` (stereo not drawn) [Example 157] returned an EC50 of 1000 to 5000 nM.

In turn, `[O-][s+]1nc(O)cc1-n1cc(-c2ccc(F)nc2)cn1` (stereo not drawn) [Example 443] registered an EC50 under setting [2] of 1000 to 5000 nM.

Broadly, the EC50 is the midpoint of the concentration-response curve. Low values mean an effect from little substance, high ones a need for much substance.
